Test results: PMC4714855, “Prediction of T Cell Epitopes from Leishmania major Potentially Excreted/Secreted Proteins Inducing Granzyme B Production” (PLoS ONE, 2016)

Experiments:
[1] = target: T1, HLA-A*0201 molecules on T2 cells (Homo sapiens, UniProt P04439, D140Y/D185E/D98H/E176V/E277Q/G131W/G231S/I119V/I121R/I166T/I218V/L300P/L318F/N151K/N90K/P208A/P217A/Q86G/Q94H/R138H/R169H/T345S); test: class I HLA stabilization assay on T2 cells (flow cytometry, anti-HLA-A2 antibody); type: cell-based; conditions: for relative fluorescence intensity (RFI), percentage increase of mean fluorescence above negative controls: T2 cells, β2-microglobulin 10μg/mL, peptide 10μg/mL (Fig 1 legend: 100μg/mL), 16h 37°C, then Brefeldin A 2h; for affinity for HLA-A2 molecule (stabilization on T2 cells), class in words: T2 cell stabilization assay
T1 construct: endogenous in cells; host or cells: T2 cells
Protocol: The affinity of peptides for HLA-A*0201 molecules was evaluated by using the stabilization assay as previously described. Briefly, T2 cells were incubated with human β2-microglobulin at a final concentration of 10μg/mL in the presence or not of peptides at 10μg/mL for 16h at 37°C in 5% CO2. Cells were then incubated with 5μg/mL Brefeldin A (Sigma-Aldrich, St. Louis, MO) for 2h at 37°C. Expression of HLA-A*0201 on T2 cells was then determined by staining with fluorescein isothiocyanate-labelled anti-HLA-A2 antibody (BD Biosciences, San Jose, CA) and analyzed by flow cytometry using FACScan (BD Biosciences, San Jose, CA). Results were expressed in relative fluorescence intensity (RFI) calculated as the percentage increase of the mean fluorescence above that of the negative controls.
The sequence of 33 different clones of potentially ES proteins has been used. Based on computer software predictions, putative class I HLA-restricted T cell epitopes were identified. Twenty proteins were able to generate a total of 78 nonameric peptides that could be loaded by HLA-A*0201 molecule (Table 2). Subsequently, we have evaluated the binding affinity of these peptides to HLA-A*0201 molecules by class I HLA stabilization assay. This assay measures the increase of HLA-A*0201 molecules induced on T2 cells following exposure to exogenous HLA-A*0201 binding peptides, with high affinity peptides inducing HLA-A*0201 up-regulation more strongly than low-affinity peptides. Individual results are shown on Fig 1A. The 78 tested peptides were classified into 3 groups regarding the percentage of RFI.
Fig 1 Binding affinity of LmES peptides to HLA-A*0201 molecules. The affinities of selected peptides were determined by class I HLA stabilization assay. (A) Results for individual peptides. T2 cells were initially incubated with 100μg (final concentration) of each of the peptides/mL for 16h at 37°C, followed by incubation at 37°C for 2h in presence of Brefeldine A. HLA-A2 expression on these cells was analyzed by flow cytometry using the BB7.2 antibody. MHC stabilization efficiency for each peptide was calculated as the percentage increase of the mean fluorescence above that of the negative controls. Results were expressed as relative fluorescence intensity (RFI). (B) Box plot results. ++: RFI ranges from 200 to 300%, +: RFI ranges from 100 to 200%, and -: RFI ranges from 0 to 100%.

[2] = system: PBMCs; test: Granzyme B production by stimulated PBMCs (ELISA of culture supernatants); type: cell-based, human; conditions: PBMCs of 3 HLA-A*0201+ and 3 HLA-A*0201- immune (healed ZCL) donors, peptide 20μg/mL, 5 days; 24 peptides tested
Protocol: To assess whether the selected peptides could stimulate or not CD8^+ T cells, we have analysed the induction of GrB and IFN-γ by stimulated PBMCs from healed ZCL individuals. PBMCs separated from heparinized blood samples using Ficoll-Hypaque (Sigma-Aldrich, St. Louis, MO) density gradient centrifugation were resuspended in RPMI 1640 medium (Sigma-Aldrich, St. Louis, MO) supplemented with 2mM L-Glutamine (Sigma-Aldrich, St. Louis, MO), 1mM sodium pyruvate (Gibco, Invitrogen, Grand Island, NY), 100U/mL Penicillin (Sigma-Aldrich, St. Louis, MO), 100μg/mL Streptomycin (Sigma-Aldrich, St. Louis, MO), 10mM HEPES (Gibco, Invitrogen, Grand Island, NY), 20μg/mL Gentamicin (Gibco, Invitrogen, Grand Island, NY), 1X non-essential amino acids (Gibco, Invitrogen, Grand Island, NY), 2-mercaptoethanol (Gibco, Invitrogen, Grand Island, NY), and 10% (v/v) heat-inactivated human AB serum (Sigma-Aldrich, St. Louis, MO), [complete medium] at a concentration of 1.0x10^6 cells/mL. Peptide pools were prepared instantly by dilution with phosphate buffered saline and then added to the cell culture at a final concentration of 1μg/mL. In some experiments, peptides were added separately to the culture at a concentration of 20μg/mL. As positive control, PBMCs were stimulated with 10ng/mL of phorbol 12-myristate 13-acetate (PMA) (Sigma-Aldrich, St. Louis, MO) and 50ng/mL Ionomycin (Sigma-Aldrich, St. Louis, MO). All cultures were incubated at 37°C in 5% CO2 for 5 days. Culture supernatants were then harvested and frozen at -80°C until use.
Granzyme B (GrB), IFN-γ, and IL-10 levels in culture supernatants were quantified with an enzyme-linked immunosorbent (ELISA) assay (MABTECH AB, Nacka Strand, Sweden) for the first one and OptEIA set ELISA assay kit (BD Biosciences, San Jose, CA) for the others. The results were expressed as pg/mL based on the standards provided by the kits. Quantification thresholds were fixed to 100pg/mL for GrB, 45pg/mL for IFN-γ, and 20pg/mL for IL-10.
Fig 2 Peptides grouped in pools induced GrB production. (A) PBMCs from 5 HLA-A*0201^+-donors with a history of ZCL in response to stimulation with peptide pools at a final concentration of 1μg/mL per peptide or (B) SLA (10μg/mL) and PMA/Ionomycin (10ng/mL and 50ng/mL, respectively) as positive controls. GrB production was assessed in culture supernatants using ELISA. (C) Rank of the peptide pools. +: mean pool rank, -: median.
Fig 3 GrB induction by the selected peptides. (A) PBMCs from HLA-A*0201^+ (black mark) and HLA-A*0201^- (white mark) -healed ZCL individuals were stimulated with selected peptides separately. The supernatant was collected after 5 days of incubation and assayed for GrB production.

Row | Sequence | relative fluorescence intensity (RFI), percentage increase of mean fluorescence above negative controls [1] [%] | affinity for HLA-A2 molecule (stabilization on T2 cells), class in words [1] | GrB induction by individual peptides [2]
1 | MLLWTAVAV [E1, nonamer … from L. major ES protein Pr 37] | > 200 | – | –
2 | VVSVLTHSV [G4, nonamer … from L. major ES protein Pr 78] | – | intermediate | highest levels of GrB
3 | YLRTFPAAL [E2, nonamer … from L. major ES protein Pr 37] | – | intermediate | highest levels of GrB
4 | MLVQSCTSI [G3, nonamer … from L. major ES protein Pr 78] | > 200 | high | highest levels of GrB
5 | PLSPATRRL [E6, nonamer … from L. major ES protein Pr 38] | – | – | highest levels of GrB
6 | ELLGNLEEV [D6, nonamer … from L. major ES protein Pr 31] | > 200 | – | –
7 | FMEVFGMLV [G2, nonamer … from L. major ES protein Pr 78] | > 200 | high | highest levels of GrB
8 | TLGVKQMVV [F6, nonamer … from L. major ES protein Pr 74 (elongation factor 1-alpha)] | > 200 | high | highest levels of GrB
9 | SLQFSAFLL [G1, nonamer … from L. major ES protein Pr 78] | > 200 | – | –
